Earlier results in patent US20040202615A1, “Melt-processed powder containing particles' repulsion agent, evaporation retardant, and means for benefit to plant cultivation and/or animal husbandry” (priority 2003, published 2004).

System: natural living organisms in water
Conditions: active ingredient level 0.04-1.0% in plastic pool and pit liners

CCCCCCCCn1sccc1=O [2-o-octyl-4-isothiazolin-3-one]
slowing of degradation of plastic liners by natural living organisms: significantly slows down their degradation
